This is an account of results in patent publication US20220008500A1, “COMPOSITIONS AND METHODS FOR TREATING HEART FAILURE” (The George Washington University, priority 2017, published 2022).

In assay [1] the test system is excised Langendorff perfused hearts. Put plainly: Isoproterenol dose response in excised Langendorff perfused hearts (β-adrenergic stimulation). Details: species or system Sprague-Dawley rats. As to the method:
At nine weeks of age rats were anesthetized with an IP injection of 0.2 mL Telazol and subject to isoflurane inhalation. Following cessation of pain reflexes, hearts were rapidly excised (n=26) and Langendorff perfused via the aorta at constant pressure (65 mmHg) and temperature (37° C.) with a Krebs-Henseleit solution containing (in mM) 115 NaCl, 3.3 KCl, 2.0 CaCl2, 1.4 MgSO4, 25.0 NaHCO3, 1.0 KH2PO4, 5.0 glucose, and 1.0 lactate. Perfusate was oxygenated with 95% 02-5% CO2. After a stabilization period of 10 minutes, a size 5 balloon (Harvard Apparatus) was inserted into the LV to measure isovolumic LV developed pressure (LVDP). Diastolic pressure was set to 10 mmHg and LVDP was computed as the difference between systolic and diastolic pressures. HR, LVDP, and coronary flow rate (CFR) were measured for at least 15 minutes during sinus rhythm. An isoproterenol (16504, Sigma Aldrich) dose response protocol was then administered using concentrations of 0.01, 0.1, 1, 10, 100, 1000 nM, and HR, LVDP, and CFR were measured at each concentration once function stabilized. After each study, rate pressure product (RPP), an indirect measure of LV work, was calculated as the product of HR and LVDP. Contractility and relaxation were measured as the maximum and minimum values of the first derivative of the LVP waveform, respectively, to assess inotropy and lusitropy.
Measurements in each group were compared using analysis of variance with Tukey post-hoc comparisons (Minitab 17 Statistical Software) to identify significant differences between groups. Myocyte area measurements were analyzed using fully nested ANOVA to account for both number of cells and number of animals. The isoproterenol dose response data was analyzed using a general linear model (GLM) to evaluate the group effect and the isoproterenol dose effect. Tukey post-hoc tests identified pairwise changes between groups at each isoproterenol concentration. Differences were considered significant if p<0.05.

In assay [2] the test system is myocardial ischemia-reperfusion. Conditions: intra-cerebroventricular administration, rats with daily restraint stress; cited from earlier work.
Where [3] appears, read: Control hearts, isoproterenol 1000 nM.

Consider `CC(C)NCC(O)c1ccc(O)c(O)c1` (stereo not drawn) [isoproterenol], for which, in assay [1] (setting [3]), the “Contractility at the highest isoproterenol concentration” value was 7,164±788 mmHg/s, the “RPP at the highest isoproterenol concentration” value is 52,741±14,328 mmHg*bpm and the “Relaxation at the highest isoproterenol concentration” value is −5,402±484 mmHg/s. Further, the “CFR at the highest isoproterenol concentration” value in assay [1] (Control hearts, isoproterenol 1000 nM, baseline 13.3±2.4 mL/min) is 25.3 ± 3.7 mL/min. In assay [1] (untreated TAC hearts), the “CFR, average for all isoproterenol concentrations” value turned out to be 8.4 ± 0.8 mL/min; the “Maximum contractility rate in the isoproterenol protocol” value is 2,322±364 mmHg/s; the “Minimum relaxation rate in the isoproterenol protocol” value is on record as −2,023±361 mmHg/s. The “RPP at the highest isoproterenol concentration” value in assay [1] (untreated TAC hearts, isoproterenol 1000 nM) was 21,787±3998 mmHg*bpm.
`CC[C@H](C)[C@@H]1NC(=O)[C@H](Cc2ccc(O)cc2)NC(=O)[C@@H](N)CSSC[C@@H](C(=O)N2CCC[C@H]2C(=O)N[C@@H](CC(C)C)C(=O)NCC(N)=O)NC(=O)[C@H](CC(N)=O)NC(=O)[C@H](CCC(N)=O)NC1=O` [oxytocin]: the “Cardiac injury following ischemia reperfusion” value in assay [2] is “reduced the cardiac injury”.
